Measurements from patent US11697648B2, “Fused pyrimidine pyridinone compounds as JAK inhibitors” (THERAVANCE BIOPHARMA R&D IP, LLC, priority 2019, dated 2023).

Assays:
JAK2 = JAK2 (Homo sapiens (Human), UniProt O60674); test: Biochemical JAK2 kinase assay (LanthaScreen)
Description: (§1) Assay 1: Biochemical JAK and Tyk2 Kinase Assays
(§2) A panel of four LanthaScreen JAK biochemical assays (JAK1, 2, 3 and Tyk2) were carried in a common kinase reaction buffer (50 mM HEPES, pH 7.5, 0.01% Brij-35, 10 mM MgCl2, and 1 mM EGTA). Recombinant GST-tagged JAK enzymes and a GFP-tagged STAT1 peptide substrate were obtained from Life Technologies.
(§3) Serially or discretely diluted compounds were pre-incubated with each of the four JAK enzymes and the substrate in white 384-well microplates (Corning) at ambient temperature for 1 h. ATP was subsequently added to initiate the kinase reactions in 10 μL total volume, with 1% DMSO. […] Kinase reactions were allowed to proceed for 1 hour at ambient temperature before a 10 μL preparation of EDTA (10 mM final concentration) and Tb-anti-pSTAT1 (pTyr701) antibody (Life Technologies, 2 nM final concentration) in TR-FRET dilution buffer (Life Technologies) was added. The plates were allowed to incubate at ambient temperature for 1 h before being read on the EnVision reader (Perkin Elmer). Emission ratio signals (520 nm/495 nm) were recorded and utilized to calculate the percent inhibition values based on DMSO and background controls.
(§4) For dose-response analysis, percent inhibition data were plotted vs. compound concentrations, and IC50 values were determined from a 4-parameter robust fit model with the Prism software (GraphPad Software). Results were expressed as pIC50 (negative logarithm of IC50) and subsequently converted to pKi (negative logarithm of dissociation constant, Ki) using the Cheng-Prusoff equation.

JAK1 = JAK1 (Homo sapiens (Human), UniProt P23458); test: Biochemical JAK1 kinase assay (LanthaScreen)
JAK1, sequence (P23458 whole entry): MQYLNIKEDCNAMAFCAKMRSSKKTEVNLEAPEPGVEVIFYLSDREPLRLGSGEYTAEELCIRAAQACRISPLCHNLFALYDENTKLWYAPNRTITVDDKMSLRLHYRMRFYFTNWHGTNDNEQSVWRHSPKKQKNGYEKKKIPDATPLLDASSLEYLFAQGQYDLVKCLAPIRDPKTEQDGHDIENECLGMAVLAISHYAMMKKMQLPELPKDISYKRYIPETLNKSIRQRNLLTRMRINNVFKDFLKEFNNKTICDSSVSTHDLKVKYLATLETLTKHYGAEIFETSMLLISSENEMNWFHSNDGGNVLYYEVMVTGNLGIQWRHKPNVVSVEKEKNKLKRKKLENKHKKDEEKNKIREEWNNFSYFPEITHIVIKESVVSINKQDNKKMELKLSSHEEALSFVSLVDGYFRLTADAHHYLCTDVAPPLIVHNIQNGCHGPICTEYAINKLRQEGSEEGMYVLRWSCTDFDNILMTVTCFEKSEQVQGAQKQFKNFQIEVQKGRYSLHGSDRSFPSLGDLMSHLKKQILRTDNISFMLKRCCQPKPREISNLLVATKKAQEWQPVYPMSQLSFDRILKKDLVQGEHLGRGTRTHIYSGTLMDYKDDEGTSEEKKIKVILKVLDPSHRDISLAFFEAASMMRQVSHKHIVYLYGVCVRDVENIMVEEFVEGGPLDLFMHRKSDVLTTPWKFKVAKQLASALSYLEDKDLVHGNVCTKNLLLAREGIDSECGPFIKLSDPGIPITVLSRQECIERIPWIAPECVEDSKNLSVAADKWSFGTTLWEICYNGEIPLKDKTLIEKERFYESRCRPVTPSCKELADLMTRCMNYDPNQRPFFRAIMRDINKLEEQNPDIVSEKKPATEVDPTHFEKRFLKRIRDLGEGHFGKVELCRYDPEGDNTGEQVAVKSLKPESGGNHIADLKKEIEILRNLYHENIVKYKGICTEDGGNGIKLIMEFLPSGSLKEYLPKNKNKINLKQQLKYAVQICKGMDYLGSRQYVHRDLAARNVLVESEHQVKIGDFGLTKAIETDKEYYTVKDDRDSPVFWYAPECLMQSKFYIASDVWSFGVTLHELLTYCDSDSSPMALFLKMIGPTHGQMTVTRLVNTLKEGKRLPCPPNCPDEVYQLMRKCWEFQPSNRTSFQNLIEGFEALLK
Outline: (§5)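 GST-JAK + GFP-STAT1 peptide, HEPES pH 7.5/MgCl2/EGTA/Brij-35 buffer; cpd preincubation 1 h RT; ATP start, 1 h RT; stop with 10 mM EDTA + 2 nM Tb-anti-pSTAT1; TR-FRET 520/495. 4-parameter IC50 → pKi (Cheng-Prusoff).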

Tyk2 = Tyk2 (Homo sapiens (Human), UniProt P29597); test: Biochemical Tyk2 kinase assay (LanthaScreen)
Tyk2, sequence (P29597 whole entry): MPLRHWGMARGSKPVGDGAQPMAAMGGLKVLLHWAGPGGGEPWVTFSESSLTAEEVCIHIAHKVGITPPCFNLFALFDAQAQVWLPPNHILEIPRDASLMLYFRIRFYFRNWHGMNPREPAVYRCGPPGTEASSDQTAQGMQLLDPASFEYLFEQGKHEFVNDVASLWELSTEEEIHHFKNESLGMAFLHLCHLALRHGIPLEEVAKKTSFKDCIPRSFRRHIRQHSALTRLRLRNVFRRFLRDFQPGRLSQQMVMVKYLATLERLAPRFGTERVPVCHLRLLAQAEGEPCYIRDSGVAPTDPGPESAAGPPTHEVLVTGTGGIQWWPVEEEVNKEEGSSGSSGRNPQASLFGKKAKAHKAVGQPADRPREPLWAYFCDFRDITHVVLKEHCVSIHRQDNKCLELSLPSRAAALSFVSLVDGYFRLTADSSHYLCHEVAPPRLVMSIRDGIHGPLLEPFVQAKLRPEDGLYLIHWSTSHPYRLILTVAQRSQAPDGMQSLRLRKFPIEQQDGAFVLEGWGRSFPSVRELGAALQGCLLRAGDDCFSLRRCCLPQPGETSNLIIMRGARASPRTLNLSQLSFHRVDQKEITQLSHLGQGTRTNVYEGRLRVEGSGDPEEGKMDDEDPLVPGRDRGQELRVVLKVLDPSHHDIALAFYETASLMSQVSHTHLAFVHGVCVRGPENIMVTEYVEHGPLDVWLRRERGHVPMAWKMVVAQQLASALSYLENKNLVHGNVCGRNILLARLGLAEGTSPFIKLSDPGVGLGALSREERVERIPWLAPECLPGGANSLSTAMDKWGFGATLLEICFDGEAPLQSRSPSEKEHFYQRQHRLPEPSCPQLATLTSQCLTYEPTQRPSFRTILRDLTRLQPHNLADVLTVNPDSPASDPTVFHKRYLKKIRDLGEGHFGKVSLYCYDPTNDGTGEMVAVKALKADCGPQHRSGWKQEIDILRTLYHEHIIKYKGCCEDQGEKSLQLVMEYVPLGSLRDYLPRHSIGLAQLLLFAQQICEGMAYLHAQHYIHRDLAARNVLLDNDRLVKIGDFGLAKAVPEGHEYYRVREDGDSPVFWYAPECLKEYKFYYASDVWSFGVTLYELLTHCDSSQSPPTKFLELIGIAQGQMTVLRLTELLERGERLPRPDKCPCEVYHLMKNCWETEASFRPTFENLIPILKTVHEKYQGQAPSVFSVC
Description: as §1, §2, §3, §4

[1] = test system: IL-2 stimulated STAT5 phosphorylation in Tall-1 human T cell line (JAK3); test: Cellular JAK3 potency assay: inhibition of IL-2 stimulated pSTAT5 in Tall-1 T cells; assay type: cell-based
Outline: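 Tall-1 cells, 45,000 per well, preincubated 1 hour with compound at 37 °C, then stimulated 30 minutes with IL-2 at 300 ng/ml final. pSTAT5 (Tyr694/699) in lysates quantified by AlphaLISA SureFire Ultra. pIC50 derived from inhibition curves, given as mean with SD.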

JAK3 = JAK3 (Homo sapiens (Human), UniProt P52333); test: Biochemical JAK3 kinase assay (LanthaScreen)
JAK3, sequence (P52333 whole entry): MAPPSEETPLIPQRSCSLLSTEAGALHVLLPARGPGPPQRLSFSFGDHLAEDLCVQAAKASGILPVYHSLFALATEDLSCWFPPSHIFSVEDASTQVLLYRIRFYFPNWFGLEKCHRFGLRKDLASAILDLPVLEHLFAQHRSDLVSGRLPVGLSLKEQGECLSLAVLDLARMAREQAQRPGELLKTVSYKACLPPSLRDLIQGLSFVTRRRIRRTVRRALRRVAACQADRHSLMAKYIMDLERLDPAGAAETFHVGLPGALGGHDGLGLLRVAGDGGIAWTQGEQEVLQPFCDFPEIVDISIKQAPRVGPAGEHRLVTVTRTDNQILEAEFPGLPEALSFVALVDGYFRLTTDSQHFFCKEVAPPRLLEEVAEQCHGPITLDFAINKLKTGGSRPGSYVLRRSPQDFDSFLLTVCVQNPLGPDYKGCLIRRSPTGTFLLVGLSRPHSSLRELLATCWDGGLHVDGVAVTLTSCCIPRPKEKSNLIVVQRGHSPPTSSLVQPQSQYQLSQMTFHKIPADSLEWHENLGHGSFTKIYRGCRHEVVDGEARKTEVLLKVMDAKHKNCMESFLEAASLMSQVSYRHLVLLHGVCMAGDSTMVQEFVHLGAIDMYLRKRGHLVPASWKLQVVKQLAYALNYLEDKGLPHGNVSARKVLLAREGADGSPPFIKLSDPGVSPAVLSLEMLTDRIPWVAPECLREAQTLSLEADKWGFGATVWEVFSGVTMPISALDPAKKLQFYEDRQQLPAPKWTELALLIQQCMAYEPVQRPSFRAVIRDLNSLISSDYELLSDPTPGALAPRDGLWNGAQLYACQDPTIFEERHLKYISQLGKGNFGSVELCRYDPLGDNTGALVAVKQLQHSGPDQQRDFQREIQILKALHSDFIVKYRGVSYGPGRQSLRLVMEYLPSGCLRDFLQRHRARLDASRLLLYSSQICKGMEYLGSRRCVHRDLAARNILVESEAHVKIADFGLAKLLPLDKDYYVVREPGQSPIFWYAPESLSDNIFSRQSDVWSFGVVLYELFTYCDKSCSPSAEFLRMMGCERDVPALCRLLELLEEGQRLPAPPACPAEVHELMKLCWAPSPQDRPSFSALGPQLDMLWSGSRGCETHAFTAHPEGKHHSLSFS
Outline: as §5

[2] = IL-2 stimulated pSTAT5, Tall-1 T cells
[3] = selectivity JAK3 over JAK1, difference of pKi

JAK2, sequence (O60674 whole entry): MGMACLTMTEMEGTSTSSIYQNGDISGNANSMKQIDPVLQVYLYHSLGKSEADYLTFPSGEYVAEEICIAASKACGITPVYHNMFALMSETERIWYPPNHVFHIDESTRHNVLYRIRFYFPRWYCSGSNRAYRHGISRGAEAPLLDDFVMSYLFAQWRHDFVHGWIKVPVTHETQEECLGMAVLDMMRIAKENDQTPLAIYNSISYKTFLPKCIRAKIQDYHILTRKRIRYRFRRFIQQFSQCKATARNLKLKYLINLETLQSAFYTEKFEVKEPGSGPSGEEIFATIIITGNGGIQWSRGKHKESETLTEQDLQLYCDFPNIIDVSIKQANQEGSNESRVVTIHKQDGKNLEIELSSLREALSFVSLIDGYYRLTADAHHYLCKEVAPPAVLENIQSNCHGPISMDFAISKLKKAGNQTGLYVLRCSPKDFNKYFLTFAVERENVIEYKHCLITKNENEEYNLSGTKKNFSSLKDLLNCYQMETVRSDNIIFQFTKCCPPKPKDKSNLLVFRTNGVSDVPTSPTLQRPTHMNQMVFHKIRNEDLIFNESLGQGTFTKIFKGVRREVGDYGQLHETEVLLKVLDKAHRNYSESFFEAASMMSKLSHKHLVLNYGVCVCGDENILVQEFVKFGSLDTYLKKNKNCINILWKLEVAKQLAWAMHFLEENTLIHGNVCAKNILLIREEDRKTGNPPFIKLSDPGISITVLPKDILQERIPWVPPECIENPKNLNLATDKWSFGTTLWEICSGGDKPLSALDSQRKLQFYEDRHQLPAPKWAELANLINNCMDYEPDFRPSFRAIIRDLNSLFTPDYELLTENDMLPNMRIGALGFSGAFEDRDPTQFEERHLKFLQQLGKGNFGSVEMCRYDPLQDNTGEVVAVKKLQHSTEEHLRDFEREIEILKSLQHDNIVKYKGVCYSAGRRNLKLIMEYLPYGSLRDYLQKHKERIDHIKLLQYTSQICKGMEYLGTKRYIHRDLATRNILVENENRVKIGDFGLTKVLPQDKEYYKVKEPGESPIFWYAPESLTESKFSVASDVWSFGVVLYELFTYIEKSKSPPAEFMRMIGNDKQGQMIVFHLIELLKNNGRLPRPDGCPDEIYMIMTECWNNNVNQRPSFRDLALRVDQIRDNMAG

Structure (SMILES) | JAK 2 (pKi) (JAK2) | JAK 1 (pKi) (JAK1) | Tyk 2 (pKi) (Tyk2) | Tall-1 (pIC50) [1, 2] | JAK 3 (pKi) (JAK3) | JAK3 (pKi)-JAK1 (pKi) (JAK3; [3]) | Tall-1 (pIC50) ([1]; IL-2 stimulated pSTAT5 in Tall-1 T cells) | JAK3 (pKi)-JAK1 (pKi) (JAK3; selectivity, difference of pKi values)
C=CC(=O)N1CCN(CCn2c(=O)ccc3cnc(Nc4ccc(N5CCN(S(C)(=O)=O)CC5)cc4)nc32)[C@@H](C)C1 [Example 176] | E (E represents a pKi value of 7 or below (Ki of 100 nM or above)) | E (E represents a pKi value of 7 or below (Ki of 100 nM or above)) | E (E represents a pKi value of 7 or below (Ki of 100 nM or above)) | B (B represents a pC50 value between 6.7 (included) and 7.5 (IC50 between 200 nM and 32 nM)) | A (A represents a pKi value≥10 (Ki≤0.1 nM)) | A (A represents a value of 3 or above) |  | 
C=CC(=O)N1CCN(CCn2c(=O)ccc3cnc(Nc4cnn(CCN5CCOCC5)c4)nc32)[C@@H](C)C1 [Example 245] | E (E represents a pKi value of 7 or below (Ki of 100 nM or above)) | E (E represents a pKi value of 7 or below (Ki of 100 nM or above)) | E (E represents a pKi value of 7 or below (Ki of 100 nM or above)) |  | B (B represents pKi value between 9 and 10 (Ki between 1 nM and 0.1 nM)) |  | B (B represents a pC50 value between 6.7 (included) and 7.5 (IC50 between 200 nM and 32 nM)) | A (A represents a value of 3 or above)
C=CC(=O)N1CCN(CCn2c(=O)ccc3cnc(Nc4ccc(N5CCN(C)CC5)cc4)nc32)[C@@H](C)C1 [Example 160] | E (E represents a pKi value of 7 or below (Ki of 100 nM or above)) | E (E represents a pKi value of 7 or below (Ki of 100 nM or above)) | E (E represents a pKi value of 7 or below (Ki of 100 nM or above)) | A (A represents a pIC50 value≥7.5 (IC50≤32 nM)) | B (B represents pKi value between 9 and 10 (Ki between 1 nM and 0.1 nM)) | A (A represents a value of 3 or above) |  | 
C=CC(=O)N1CCN(CCn2c(=O)ccc3cnc(Nc4ccc(N5CCN(C)CC5)c(C)c4)nc32)CC1 [Example 49] | E (E represents a pKi value of 7 or below (Ki of 100 nM or above)) | E (E represents a pKi value of 7 or below (Ki of 100 nM or above)) | E (E represents a pKi value of 7 or below (Ki of 100 nM or above)) | B (B represents a pC50 value between 6.7 (included) and 7.5 (IC50 between 200 nM and 32 nM)) | B (B represents pKi value between 9 and 10 (Ki between 1 nM and 0.1 nM)) | A (A represents a value of 3 or above) |  | 
C=CC(=O)N1CC(CC)(CCn2c(=O)ccc3cnc(Nc4ccc(N5CCN(C)CC5)cc4)nc32)C1 [Example 217] | D (D represents a pKi value between 7 and 8 (Ki between 100 nM and 10 nM)) | E (E represents a pKi value of 7 or below (Ki of 100 nM or above)) | E (E represents a pKi value of 7 or below (Ki of 100 nM or above)) | A (A represents a pIC50 value≥7.5 (IC50≤32 nM)) | B (B represents pKi value between 9 and 10 (Ki between 1 nM and 0.1 nM)) | A (A represents a value of 3 or above) |  | 
C=CC(=O)N1CC(CCn2c(=O)ccc3cnc(Nc4ccc(N5CCN(C)[C@@H](C)C5)cc4)nc32)C1 [Example 165] | E (E represents a pKi value of 7 or below (Ki of 100 nM or above)) | E (E represents a pKi value of 7 or below (Ki of 100 nM or above)) | E (E represents a pKi value of 7 or below (Ki of 100 nM or above)) | A (A represents a pIC50 value≥7.5 (IC50≤32 nM)) | A (A represents a pKi value≥10 (Ki≤0.1 nM)) | A (A represents a value of 3 or above) |  | 
